Test results published in publication PMC7930822, “Phase I Trial to Evaluate the Tolerance, Pharmacokinetics and Efficacy of the Broad-Spectrum ErbB Family Inhibitor Larotinib Mesylate in Patients With Advanced Solid Tumors” (Frontiers in Pharmacology, 2021).
Counter-ions that a name gives are not always drawn.

Columns and labels:
[1] = system: Sprague–Dawley rats; settings: rat, in vivo
Method: (§1) Animal toxicology studies of larotinib mesylate were conducted in both Sprague–Dawley rats and beagle dogs. […] The maximal tolerable doses (MTDs) were 20 and 25 mg/kg in Sprague–Dawley rats and beagle dogs, respectively.
(§2) According to the guidance for clinical trials of antitumor agents published by the Center for Drug Evaluation and Research in China, for cytotoxic antitumor agents, the initial dose in a phase I study can be calculated as 1/10 of the MTD in rodents or 1/6 of the MTD in non-rodent animals ([CFDA, 2012]). For non-cytotoxic antitumor agents, because of their relatively lower toxicity, the initial dose can be set higher. According to the reported preclinical results for larotinib mesylate, the MTD in Sprague–Dawley rats translated to a human equivalent dose of 192 mg/d according to body surface area (calculated by 60 kg body weight), for which 1/10 is 19.2 mg/d ([FDA, 2005]). […] Taking the above results for the toxicology, preclinical pharmacology and pharmacodynamics, and drug specifications (10, 50 and 100 mg) of larotinib mesylate into account, we calculated a recommended starting dose of 50 mg larotinib mesylate for a phase I, first-in-human clinical study, lower than human equivalent 1/6 MTD translated from beagle dogs and near the human equivalent effective dose translated from tumor-bearing mice. […]

[2] = system: beagle dogs; settings: dog, in vivo
Method: as §1, §2

[3] = system: wild-type EGFR; test: in vitro kinase inhibition, wild-type EGFR; format: biochemical
Method: Larotinib mesylate (Figure 1) is a novel, potent broad-spectrum TKI with EGFR as the main target with a 50% inhibitory concentration (IC50) of 0.6 nM (data not published). […] We hypothesized that the characteristics of larotinib mesylate that facilitate simultaneous inhibition of multiple kinases may improve the tumor inhibiting effect of the drug and decrease the emergence of resistance to larotinib mesylate in solid tumor cells.

[4] = system: EGFR with the L861Q mutation; set-up: method as in data not published; settings: ref data not published; cited from earlier work
[5] = system: EGFR (T790M); set-up: method as in data not published; settings: ref data not published; cited from earlier work
[6] = system: tumor-bearing mice; set-up: method as in data not published; settings: dose of 18 mg/kg, ref data not published; cited from earlier work
[7] = system: tumor-bearing mice; test: preclinical pharmacodynamic study in tumor-bearing mice; format: in vivo; settings: from effective dose of 18 mg/kg in tumor-bearing mice, by body surface area
Method: as §1, §2

[8] = system: EGFR with a deletion in the exon 19; set-up: method as in data not published; settings: ref data not published; cited from earlier work
[9] = system: beagle dogs; set-up: method as in data not published; settings: ref data not published, cited from earlier work
[10] = system: HER4; set-up: method as in data not published; settings: ref data not published; cited from earlier work

SMILES: COc1cc2ncnc(Nc3ccc(F)c(Cl)c3)c2cc1OCCCN1C[C@@H]2OCCO[C@@H]2C1 [larotinib mesylate]
- human equivalent dose of MTD [1]: 192 mg/day
- human equivalent dose of MTD [2]: 810 mg/day
- fold greater inhibitory activity than gefitinib ([3]; ref Baselga and Averbuch, 2000): 37 fold
- fold greater inhibitory activity than erlotinib ([3]; ref Moyer et al., 1997): 3 fold
- IC50 [4]: 0.000423 µM
- IC50 [5]: 0.0452 µM
- tumor-inhibiting rate [6]: exceeding 60%
- human equivalent effective dose [7]: 86.4 mg/day
- inhibition [8]: potently inhibited
- lowest observed adverse effect level (LOAEL) ([9]; daily administration): 5 mg/kg
- maximal tolerable dose (MTD) [9]: 25 mg/kg
- IC50 [10]: 0.084 µM
